Values joined by “and” are separate entries in the source; they are usually repeats but may differ in a detail not shown here. Equal entries are not always repeated.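 48-hour exposure; five concentrations; linearly interpolated endpoints. Abbreviation: GI50, concentration required for 50% inhibition of growth. TGI marks complete inhibition of growth.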
Tests used:
Assay in all cases: inhibition of tumour cell growth, NCI panel, 48 h
UO-31 renal = system: UO-31 renal
SW-620 colon = system: SW-620 colon
HCC-2998 colon = system: HCC-2998 colon
NCI/ADR-RES ovarian = system: NCI/ADR-RES ovarian
U251 CNS = system: U251 CNS
NCI-H23 lung = system: NCI-H23 lung
PC-3 prostate = system: PC-3 prostate
OVCAR-8 ovarian = system: OVCAR-8 ovarian
OVCAR-3 ovarian = system: OVCAR-3 ovarian
BT-549 breast = system: BT-549 breast

Structure (SMILES) | TGI (UO-31 renal) | TGI (SW-620 colon) | TGI (HCC-2998 colon) [µM] | TGI (NCI/ADR-RES ovarian) [µM] | TGI (U251 CNS) | TGI (NCI-H23 lung) [µM] | TGI (PC-3 prostate) [µM] | TGI (OVCAR-8 ovarian) | TGI (OVCAR-3 ovarian) [µM] | TGI (BT-549 breast) [µM] | GI50 (OVCAR-3 ovarian) [µM] | GI50 (U251 CNS) [µM] | GI50 (SW-620 colon) [µM] | GI50 (BT-549 breast) [µM] | GI50 (NCI-H23 lung) [µM] | GI50 (PC-3 prostate) [µM]
CC(NNC(=O)c1ccncc1)c1cccc(C(F)(F)F)c1 (stereo unspecified) | > 100 µM | > 100 µM | > 100 | > 100 | > 100 µM | > 100 | > 100 | > 100 µM |  |  |  |  |  |  |  | 
Cc1ccc(NC(=O)C2C3CCC(O3)C2C(=O)O)cc1 (stereo unspecified) | > 100 µM | > 45.1 µM | > 100 |  | > 100 µM | > 100 |  | > 100 µM | > 89.7 |  |  |  |  |  |  | 
CCOC(=O)c1nc2cc(Cl)ccc2[nH]c1=O | > 100 µM | > 100 µM | > 100 | > 100 | > 100 µM | > 100 | > 100 | > 100 µM | > 100 | > 100 |  |  |  |  |  | 
COc1ccc(C2=NNC(=O)c3ccccc3N2c2nc(-c3cccs3)nc3cc(OC)c(OC)cc23)cc1 | 25 µM | > 100 µM | 7.21 | > 100 | 33.3 µM | > 100 | > 100 | > 100 µM | 9.24 | 6.63 |  |  |  |  |  | 
CCNC(=S)NNC(=O)c1ccccc1Nc1ccccc1C(=O)NNC(=S)NCC | > 100 µM | > 100 µM | > 100 | > 100 | > 100 µM | > 100 | > 100 | > 100 µM | > 100 | > 100 |  |  |  |  |  | 
O=c1c2c3c(sc2nc2n1NC=NN2)CCCC3 | > 64.3 µM | 38.7 µM | 51.7 | 65.5 | 35 µM | > 62.6 | > 56.7 | 58.2 µM | 30.5 | 31.8 |  |  |  |  |  | 
CNC(=O)CNC(=O)N(C[C@@H]1CCCN1C(=O)[C@H](CC(C)C)NC(=O)OC(C)(C)C)C(C)C | > 100 µM | > 100 µM | > 100 | > 100 | > 100 µM | > 100 | > 100 | > 100 µM | > 100 | > 100 |  |  |  |  |  | 
CC1OC(O[C@@H]2C=C3CC[C@@H]4[C@H](CC[C@]5(C)[C@@H](c6ccc(=O)oc6)CC[C@]45O)[C@@]3(C)CC2)C(O)C(OC2OC(CO)C(O)C(O)C2O)C1O (stereo partly specified) | 0.00316 µM and 0.0263 µM | 0.0348 µM and 0.0288 µM | 0.0422 |  | 0.0176 µM and 0.0352 µM | 0.0236 | 0.00942 | 0.0162 µM and 0.0299 µM | 0.0253 |  | 0.000162 | 0.000247 |  |  |  | 
CN(C)CCC[N+]1=Nc2cccc3cccc(c23)N1 | > 100 µM | 44.9 µM | > 100 |  | > 100 µM | > 100 |  | > 100 µM | > 100 |  |  |  |  |  |  | 
O=C1CN(c2cccc(C(F)(F)F)c2)C(=O)CN1CCN1CC(=O)N(c2cccc(C(F)(F)F)c2)CC1=O | > 100 µM | > 100 µM | > 100 | > 100 | > 100 µM |  | > 100 | > 100 µM |  |  |  |  |  |  |  | 
Cn1c(=O)c2[nH]c(SC/C(=N/O)c3ccc(Br)cc3)nc2n(C)c1=O |  | > 100 µM |  |  |  | 4.75 | > 100 |  |  | 7.36 |  |  | > 100 | 2.55 | 2.08 | > 100
C=CCOC(=O)Cn1ccc(=O)[nH]c1=O | > 100 µM | > 100 µM | > 100 | > 100 | > 100 µM | > 100 | > 100 | > 100 µM |  |  |  |  |  |  |  | 
CSc1ncc2c(n1)-c1ccccc1OC2 | > 100 µM | > 100 µM |  | > 100 | > 100 µM | > 100 | > 100 | > 100 µM | > 100 | > 100 |  |  |  |  |  | 
O=C(O)c1nn(-c2ccccc2)nc1-c1nn(-c2ccccc2)nc1C(=O)O | > 100 µM | > 100 µM | > 100 | > 100 | > 100 µM | > 100 | > 100 | > 100 µM | > 100 |  |  |  |  |  |  | 
CCCN(CCC)C(=O)c1c(N2CCN(C)CC2)c2cccnc2n2c(C)cnc12 | > 100 µM | 45.5 µM |  | > 100 | > 100 µM | > 100 | > 100 | > 100 µM | > 100 |  |  |  |  |  |  | 
COc1cc(S(=O)(=O)Nc2ccc(-c3csc(N4C(=O)CSC4c4ccccc4O)n3)cc2)ccc1Cl (stereo unspecified) | > 100 µM | > 100 µM | 41.4 | > 100 |  | > 100 | > 100 | > 100 µM | > 100 | > 100 |  |  |  |  |  | 
COc1ccc(N2C(=O)/C(=C/c3ccc(N(CCC#N)CCC#N)cc3)N=C2c2ccccc2)cc1 | > 100 µM | > 100 µM |  | > 100 | > 100 µM |  | > 100 | > 100 µM | > 100 | > 100 |  |  |  |  |  | 
CC(=O)OCC1OC(N=[N+]=[N-])C(OC(C)=O)C(OC(C)=O)C1OC1OC(COC(C)=O)C(OC(C)=O)C(OC(C)=O)C1OC(C)=O (stereo unspecified) | > 100 µM | > 100 µM | > 100 |  | > 100 µM | > 100 |  | > 100 µM | > 100 |  |  |  |  |  |  | 
CC(C)(C)OC(=O)N1N=CCC1c1ccccc1 (stereo unspecified) | > 100 µM | > 100 µM | > 100 | > 100 |  | > 100 |  | > 100 µM | > 100 |  |  |  |  |  |  | 
COc1cccc(CCNc2c(C#N)c3n(c4ccccc4[n+]3C)c3ncccc23)c1 | 12 µM |  | 3.46 | > 51 | > 21.3 µM | > 56.5 | 31.4 | 3.87 µM | 48 | 49.5 |  |  |  |  |  | 
CC#COS(=O)(=O)c1ccc(C)cc1 | > 100 µM | > 100 µM | > 100 |  | > 100 µM | > 100 |  | > 100 µM | > 100 |  |  |  |  |  |  | 
COc1cc(O)c(Cc2ccccc2O)c(O)c1C(=O)CCc1ccccc1 | 23.4 µM | 29.4 µM | 19.8 | 18.9 | 14.5 µM | 12 |  | 28.1 µM | 16.1 |  |  |  |  |  |  | 

Reference: PubChem BioAssay (NCI)
